Measurements from PMC8225008, “Development of Non-Ethoxypropanoic Acid Type Cryptochrome Inhibitors with Circadian Molecular Clock-Enhancing Activity by Bioisosteric Replacement” (Pharmaceuticals, 2021).

Tests used:
Format in all cases: in vitro ADME
CYP2C9 = target: T1, CYP2C9 (Homo sapiens, UniProt P11712); assay: Cytochrome P450 inhibition assay (cocktail method, human liver microsomes), tolbutamide 4-methylhydroxylation
T1 construct: pooled human liver microsomes (HLMs, XTreme 200, XenoTech, Lenexa, KS, USA); tissue XenoTech XTreme 200; host or cells: pooled human liver microsomes
Experimental: (§1) The inhibitory effects of KS15 and compound 5d on the metabolism of five cytochrome P450 (P450) probe substrates were evaluated using previous methods with slight modifications. The following P450 probe substrates were used: phenacetin (100 μM) for CYP1A2, tolbutamide (100 μM) for CYP2C9, omeprazole (20 μM) for CYP2C19, dextromethorphan (5 μM) for CYP2D6, and midazolam (5 μM) for CYP3A. Incubation mixtures containing pooled human liver microsomes (HLMs, XTreme 200, XenoTech, Lenexa, KS, USA), P450 probe substrates, and KS15 or compound 5d (final concentrations: 0, 0.5, 2, 5, 20, and 50 μM) were preincubated for 5 min at 37 °C. […] After centrifugation at 18,000× g (5 min, 4 °C), supernatant aliquots were analyzed by liquid chromatography-tandem mass spectrometry (LC-MS/MS). […]
(§2) All metabolites and IS were separated on a Kinetex C18 column (100 mm × 2.1 mm, 2.6 μm ID., Phenomenex, Torrance, CA, USA) and analyzed using an LC-MS/MS system (LCMS 8060, Shimadzu, Tokyo, Japan) equipped with an electrospray ionization (ESI) interface. […]
(§3) The EC50 values for luciferase reporter assay were calculated based on a logistic four-parametric equation using the mean values of intrinsic activation (SigmaPlot 10.0; Systat Software Inc., San Jose, CA, USA). […] Pharmacokinetic parameters were calculated using non-compartmental analysis (WinNonlin v.8.3; Pharsight, Mountain View, CA, USA). […]

CYP2C19 = target: T2, CYP2C19 (Homo sapiens, UniProt P33261); assay: Cytochrome P450 inhibition assay (cocktail method, human liver microsomes), omeprazole hydroxylation
T2 construct: pooled human liver microsomes (HLMs, XTreme 200, XenoTech, Lenexa, KS, USA); tissue XenoTech XTreme 200; host or cells: pooled human liver microsomes
Experimental: as §1, §2, §3

CYP2D6 = target: T3, CYP2D6 (Homo sapiens, UniProt P10635); assay: Cytochrome P450 inhibition assay (cocktail method, human liver microsomes), dextromethorphan O-demethylation
T3 construct: pooled human liver microsomes (HLMs, XTreme 200, XenoTech, Lenexa, KS, USA); tissue XenoTech XTreme 200; host or cells: pooled human liver microsomes
Experimental: as §1, §2, §3

Measured: IC50

T1 sequence (P11712 whole entry): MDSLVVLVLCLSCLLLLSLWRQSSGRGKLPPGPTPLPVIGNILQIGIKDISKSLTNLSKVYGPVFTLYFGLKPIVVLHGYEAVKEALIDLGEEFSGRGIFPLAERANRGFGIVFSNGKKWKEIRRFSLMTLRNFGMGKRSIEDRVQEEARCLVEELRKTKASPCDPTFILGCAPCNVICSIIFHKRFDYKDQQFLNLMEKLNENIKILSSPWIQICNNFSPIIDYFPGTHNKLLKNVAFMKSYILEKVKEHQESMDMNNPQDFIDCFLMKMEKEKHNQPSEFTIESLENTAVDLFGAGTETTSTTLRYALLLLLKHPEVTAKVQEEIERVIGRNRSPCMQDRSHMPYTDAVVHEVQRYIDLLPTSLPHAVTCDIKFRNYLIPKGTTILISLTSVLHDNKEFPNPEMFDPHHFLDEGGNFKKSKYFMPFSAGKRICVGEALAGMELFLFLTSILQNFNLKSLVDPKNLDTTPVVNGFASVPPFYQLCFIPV
T3 sequence (P10635 whole entry): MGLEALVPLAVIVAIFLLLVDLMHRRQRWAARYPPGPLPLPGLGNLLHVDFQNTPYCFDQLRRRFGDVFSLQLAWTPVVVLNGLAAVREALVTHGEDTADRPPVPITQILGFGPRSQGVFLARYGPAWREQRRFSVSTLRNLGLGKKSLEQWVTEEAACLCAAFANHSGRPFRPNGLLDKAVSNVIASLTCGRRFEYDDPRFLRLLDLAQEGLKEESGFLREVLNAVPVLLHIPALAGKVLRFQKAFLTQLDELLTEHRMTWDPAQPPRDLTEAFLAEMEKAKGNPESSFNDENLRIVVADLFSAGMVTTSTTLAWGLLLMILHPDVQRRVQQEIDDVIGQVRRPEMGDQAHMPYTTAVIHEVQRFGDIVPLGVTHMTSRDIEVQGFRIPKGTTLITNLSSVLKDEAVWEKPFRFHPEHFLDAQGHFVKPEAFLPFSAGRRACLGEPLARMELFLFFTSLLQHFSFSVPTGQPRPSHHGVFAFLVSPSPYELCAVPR
T2 sequence (P33261 whole entry): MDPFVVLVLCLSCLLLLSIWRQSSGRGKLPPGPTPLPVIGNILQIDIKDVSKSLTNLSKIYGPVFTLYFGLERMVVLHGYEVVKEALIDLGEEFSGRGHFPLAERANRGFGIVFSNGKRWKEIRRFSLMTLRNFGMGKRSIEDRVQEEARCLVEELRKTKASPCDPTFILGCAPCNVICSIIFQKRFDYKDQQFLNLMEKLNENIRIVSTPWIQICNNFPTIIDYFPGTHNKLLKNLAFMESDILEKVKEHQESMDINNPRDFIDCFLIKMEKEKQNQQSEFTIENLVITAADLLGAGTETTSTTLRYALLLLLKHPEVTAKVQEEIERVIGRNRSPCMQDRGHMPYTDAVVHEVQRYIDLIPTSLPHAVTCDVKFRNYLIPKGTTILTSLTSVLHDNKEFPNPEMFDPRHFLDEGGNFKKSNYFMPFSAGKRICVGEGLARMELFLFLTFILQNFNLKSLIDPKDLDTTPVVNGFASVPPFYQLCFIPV

COC(=O)COc1cccc(C(C)=NOCc2ccc([N+](=O)[O-])cc2)c1 [Compound 5d, Methyl 2-(3-(1-(((4-nitrobenzyl)oxy)imino)ethyl)phenoxy)acetate]
> 50 µM: all assays above
